The values below are quoted from earlier work in patent US20230218648A1, “USE OF HUMAN MILK OLIGOSACCHARIDES IN NUTRITIONAL COMPOSITIONS FOR ENHANCING BONE DEVELOPMENT AND/OR BONE STRENGTH” (SOCIETE DES PRODUITS NESTLE S.A., priority 2020, published 2023).

For the data set, the system named is osteoclast and osteoblast biology. The settings on record: reported by C.A. Cowardin et al., PNAS, 2019, 116.

In the case of 2′-fucosyllactose [2′-FL], the changes in bone-biology entry is on record as “failed to elicit changes in bone-biology”.
